The target in this assay is T1, hFASN enzyme (full length) (Homo sapiens, UniProt P49327).
T1 construct: 10 μL hFASN enzyme (full length, 300 ng, purified in house); made in house
The assay is described as follows: Fatty Acid Synthase (FASN) inhibition scintillation proximity assay. The assay is classed as biochemical. Particulars: for inhibition at 10 µM: read-out: Human FASN % inhibition @ 10 μM, 10 μM test compound; for IC50: read-out: Human FASN pIC50 (converted). In a few lines:
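Scintillation proximity format: in-house full-length enzyme, 300 ng per well, pH 7.5 phosphate/DTT buffer, ³H-acetyl-CoA and malonyl-CoA. Emission counted on LEADseeker at 610 nm at least 24 h after stopping.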
(In general: Scintillation proximity formats need no separation of bound from free tracer.)

Molecules are shown by their SMILES.

We go through 24 compounds from patent publication US10077261B2, “Imidazolin-5-one derivative useful as FASN inhibitors for the treatment of cancer” (Janssen Pharmaceutica NV, priority 2012, dated 2018).

A word on the inhibition: it is the drop in the measured response relative to a control, in per cent.

T1 sequence (P49327 whole entry): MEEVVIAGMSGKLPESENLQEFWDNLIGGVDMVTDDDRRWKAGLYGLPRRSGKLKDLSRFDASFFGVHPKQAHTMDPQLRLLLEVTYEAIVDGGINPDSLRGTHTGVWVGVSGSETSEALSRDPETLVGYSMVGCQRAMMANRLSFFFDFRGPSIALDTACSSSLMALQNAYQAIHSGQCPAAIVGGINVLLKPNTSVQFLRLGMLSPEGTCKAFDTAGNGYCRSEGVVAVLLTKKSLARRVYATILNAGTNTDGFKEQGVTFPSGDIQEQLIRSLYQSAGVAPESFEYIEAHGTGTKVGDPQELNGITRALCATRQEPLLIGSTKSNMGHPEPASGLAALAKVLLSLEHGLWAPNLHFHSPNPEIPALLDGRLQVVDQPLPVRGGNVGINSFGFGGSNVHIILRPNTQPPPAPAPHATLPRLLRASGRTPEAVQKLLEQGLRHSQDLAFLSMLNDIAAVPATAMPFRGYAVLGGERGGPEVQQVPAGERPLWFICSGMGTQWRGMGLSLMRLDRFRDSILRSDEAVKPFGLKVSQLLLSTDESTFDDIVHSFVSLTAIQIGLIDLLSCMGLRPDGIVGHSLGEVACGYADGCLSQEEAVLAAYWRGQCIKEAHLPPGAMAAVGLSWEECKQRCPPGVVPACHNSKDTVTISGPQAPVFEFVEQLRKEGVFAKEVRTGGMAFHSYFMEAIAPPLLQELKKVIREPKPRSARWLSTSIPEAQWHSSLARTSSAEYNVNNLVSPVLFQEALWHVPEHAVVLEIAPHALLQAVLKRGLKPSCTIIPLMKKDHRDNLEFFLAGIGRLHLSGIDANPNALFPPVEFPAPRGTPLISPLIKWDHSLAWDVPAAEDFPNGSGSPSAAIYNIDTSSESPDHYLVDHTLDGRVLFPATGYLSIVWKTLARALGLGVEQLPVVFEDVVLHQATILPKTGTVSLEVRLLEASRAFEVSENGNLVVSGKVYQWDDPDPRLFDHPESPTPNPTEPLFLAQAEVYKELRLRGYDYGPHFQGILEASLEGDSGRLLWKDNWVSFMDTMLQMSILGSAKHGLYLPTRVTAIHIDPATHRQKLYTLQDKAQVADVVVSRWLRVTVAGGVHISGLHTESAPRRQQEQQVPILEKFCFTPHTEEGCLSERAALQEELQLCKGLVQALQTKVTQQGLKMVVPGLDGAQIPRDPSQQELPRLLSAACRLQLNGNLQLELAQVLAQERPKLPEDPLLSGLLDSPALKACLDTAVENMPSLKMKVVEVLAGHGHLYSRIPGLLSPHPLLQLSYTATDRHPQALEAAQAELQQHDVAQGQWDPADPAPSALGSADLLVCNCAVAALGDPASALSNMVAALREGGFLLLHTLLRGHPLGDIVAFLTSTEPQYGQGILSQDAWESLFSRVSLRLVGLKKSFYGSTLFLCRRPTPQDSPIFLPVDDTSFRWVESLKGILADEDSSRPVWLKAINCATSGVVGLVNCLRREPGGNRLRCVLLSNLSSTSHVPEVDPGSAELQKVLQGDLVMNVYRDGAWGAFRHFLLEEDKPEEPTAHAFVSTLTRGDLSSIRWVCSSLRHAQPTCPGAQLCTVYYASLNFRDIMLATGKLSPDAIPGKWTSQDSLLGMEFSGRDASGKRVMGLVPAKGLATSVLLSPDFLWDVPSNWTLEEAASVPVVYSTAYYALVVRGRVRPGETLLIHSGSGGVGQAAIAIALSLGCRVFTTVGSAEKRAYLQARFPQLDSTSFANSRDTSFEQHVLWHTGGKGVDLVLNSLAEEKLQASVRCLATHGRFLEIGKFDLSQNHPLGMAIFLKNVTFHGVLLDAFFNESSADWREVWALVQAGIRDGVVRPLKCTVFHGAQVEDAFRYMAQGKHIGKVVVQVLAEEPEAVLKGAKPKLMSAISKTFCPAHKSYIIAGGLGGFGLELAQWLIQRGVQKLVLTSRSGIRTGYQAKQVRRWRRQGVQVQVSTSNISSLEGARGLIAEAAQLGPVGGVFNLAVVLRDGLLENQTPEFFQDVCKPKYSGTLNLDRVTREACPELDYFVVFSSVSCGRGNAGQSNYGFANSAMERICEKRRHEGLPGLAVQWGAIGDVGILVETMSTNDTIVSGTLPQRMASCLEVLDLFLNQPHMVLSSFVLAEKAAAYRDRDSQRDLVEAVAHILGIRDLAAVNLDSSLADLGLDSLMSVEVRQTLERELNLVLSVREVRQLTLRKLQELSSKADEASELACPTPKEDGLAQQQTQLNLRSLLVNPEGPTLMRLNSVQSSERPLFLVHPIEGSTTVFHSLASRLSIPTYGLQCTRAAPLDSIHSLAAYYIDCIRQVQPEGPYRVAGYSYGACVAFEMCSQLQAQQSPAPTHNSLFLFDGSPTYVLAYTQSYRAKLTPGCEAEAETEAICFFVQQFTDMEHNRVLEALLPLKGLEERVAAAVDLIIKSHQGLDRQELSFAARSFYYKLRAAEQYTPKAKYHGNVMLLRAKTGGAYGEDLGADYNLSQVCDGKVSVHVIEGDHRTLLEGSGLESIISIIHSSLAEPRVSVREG

For `CCn1ncc2cc(-c3ccc(C4=NC5(CC5)C(=O)N4CC4CN(C(=O)C5CC5)C4)cc3)ccc21` [compound 505, 6-{[1-(Cyclopropylcarbonyl)azetidin-3-yl]methyl}-5-[4-(1-ethyl-1H-indazol-5-yl)phenyl]-4,6-diazaspiro[2.4]hept-4-en-7-one], the inhibition at 10 µM came out at 80% and the IC50 was 1.17 µM.

Take `CCn1cc2cc(-c3ccc(C4=NC5(CC5)C(=O)N4CC4CN(C(=O)C5CC5)C4)cc3)ccc2n1` [compound 506, 6-{[1-(Cyclopropylcarbonyl)azetidin-3-yl]methyl}-5-[4-(2-ethyl-2H-indazol-5-yl)phenyl]-4,6-diazaspiro[2.4]hept-4-en-7-one]: the inhibition at 10 µM came out at 61% and the IC50 was 3.39 µM.

Consider `CC(C)n1ccc2cc(-c3ccc(C4=NC5(CC5)C(=O)N4CC4CN(C(=O)C5CC5)C4)cc3)ccc21` [compound 508, 6-{[1-(Cyclopropylcarbonyl)azetidin-3-yl]methyl}-5-{4-[1-(1-methylethyl)-1H-indol-5-yl]phenyl}-4,6-diazaspiro[2.4]hept-4-en-7-one], for which the inhibition at 10 µM was 74% and the IC50 was 2.88 µM.

`O=C(C1CC1)N1CC(CN2C(=O)C3(CC3)N=C2c2ccc(-c3ccc(-n4ccnc4)nc3)cc2)C1` [compound 509, 6-{[1-(Cyclopropylcarbonyl)azetidin-3-yl]methyl}-5-{4-[6-(1H-imidazol-1-yl)pyridin-3-yl]phenyl}-4,6-diazaspiro[2.4]hept-4-en-7-one]: the inhibition at 10 µM stood at 69% and the IC50 was 2 µM.

On to `Cc1ccc2ccc(-c3ccc(C4=NC5(CC5)C(=O)N4CC4CN(C(=O)C5CC5)C4)cc3)cc2n1` [compound 513, 6-{[1-(Cyclopropylcarbonyl)azetidin-3-yl]methyl}-5-[4-(2-methylquinolin-7-yl)phenyl]-4,6-diazaspiro[2.4]hept-4-en-7-one], for which the inhibition at 10 µM is 85% and the IC50 was 1.23 µM.

As for `Cn1nccc1-c1ccc(-c2ccc(C3=NC4(CC4)C(=O)N3CC3CN(C(=O)C4CC4)C3)cc2)cc1` [compound 514, 6-{[1-(Cyclopropylcarbonyl)azetidin-3-yl]methyl}-5-[4′-(1-methyl-1H-pyrazol-5-yl)biphenyl-4-yl]-4,6-diazaspiro[2.4]hept-4-en-7-one], the inhibition at 10 µM came to 56% and the IC50 is 7.41 µM.

Take `CC(C)n1cc(-c2ccc(-c3ccc(C4=NC5(CC5)C(=O)N4CC4CN(C(=O)C5CC5)C4)cc3)cn2)cn1` [compound 516, 6-{[1-(Cyclopropylcarbonyl)azetidin-3-yl]methyl}-5-(4-{6-[1-(1-methylethyl)-1H-pyrazol-4-yl]pyridin-3-yl}phenyl)-4,6-diazaspiro[2.4]hept-4-en-7-one]: the inhibition at 10 µM is 83% and the IC50 is 1.17 µM.

As to `CC(O)C(=O)N1CC[C@@H](CN2C(=O)C3(CCOCC3)N=C2c2ccc(-c3ccc(-c4cnn(C)c4)cc3)cc2)C1` (stereo partly drawn) [compound 656, 3-{[(3R)-1-(2-Hydroxypropanoyl)pyrrolidin-3-yl]methyl}-2-[4′-(1-methyl-1H-pyrazol-4-yl)biphenyl-4-yl]-8-oxa-1,3-diazaspiro[4.5]dec-1-en-4-one], the inhibition at 10 µM was 74% and the IC50 was 2 µM.

As for `COC(=O)N1CC[C@@H](CN2C(=O)C3(CCOCC3)N=C2c2ccc(-c3ccc(-c4cnn(C)c4)cc3)cc2)C1` [compound 658, Methyl (3S)-3-({2-[4′-(1-methyl-1H-pyrazol-4-yl)biphenyl-4-yl]-4-oxo-8-oxa-1,3-diazaspiro[4.5]dec-1-en-3-yl}methyl)pyrrolidin-1-carboxlate], the inhibition at 10 µM was 52% and the IC50 was 8.71 µM.

`Cn1cc(-c2ccc(-c3ccc(C4=NC5(CCOCC5)C(=O)N4C[C@@H]4CCN(C(=O)C(F)(F)F)C4)cc3)cc2)cn1` [compound 659, 2-[4′-(1-Methyl-1H-pyrazol-4-yl)biphenyl-4-yl]-3-{[(3R)-1-(trifluoroacetyl)pyrrolidin-3-yl]methyl}-8-oxa-1,3-diazaspiro[4.5]dec-1-en-4-one]: the inhibition at 10 µM came out at 38% and the IC50 is roughly 8.32 µM.

With `Cn1cc(-c2ccc(-c3ccc(C4=NC5(CCOCC5)C(=O)N4C[C@@H]4CCN(C(=O)N5CCCC5)C4)cc3)cc2)cn1` [compound 660, 2-[4′-(1-Methyl-1H-pyrazol-4-yl)biphenyl-4-yl]-3-{[(3S)-1-(pyrrolidin-1-ylcarbonyl)pyrrolidin-3-yl]methyl}-8-oxa-1,3-diazaspiro[4.5]dec-1-en-4-one], the inhibition at 10 µM is 76% and the IC50 is 2.24 µM.

On to `O=C(c1nccs1)N1CC[C@@H](CN2C(=O)C3(CCOCC3)N=C2c2ccc(-c3ccc4cccnc4c3)cc2)C1` [compound 666, 2-(4-Quinolin-7-ylphenyl)-3-{[(3R)-1-(1,3-thiazol-2-ylcarbonyl)pyrrolidin-3-yl]methyl}-8-oxa-1,3-diazaspiro[4.5]dec-1-en-4-one], for which the inhibition at 10 µM turned out to be 62% and the IC50 is roughly 5.01 µM.

For the compound `CC(O)C(=O)N1CC[C@@H](CN2C(=O)C3(CCOCC3)N=C2c2ccc(-c3ccc4occc4c3)cc2)C1` (stereo partly drawn) [compound 668, 2-[4-(1-Benzofuran-5-yl)phenyl]-3-{[(3R)-1-(2-hydroxypropanoyl)pyrrolidin-3-yl]methyl}-8-oxa-1,3-diazaspiro[4.5]dec-1-en-4-one], the inhibition at 10 µM was 86% and the IC50 was 1.17 µM.

Take `O=C(N1CC[C@@H](CN2C(=O)C3(CCOCC3)N=C2c2ccc(-c3ccc4occc4c3)cc2)C1)C(F)(F)F` [compound 670, 2-[4-(1-Benzofuran-5-yl)phenyl]-3-{[(3R)-1-(trifluoroacetyl)pyrrolidin-3-yl]methyl}-8-oxa-1,3-diazaspiro[4.5]dec-1-en-4-one]: the inhibition at 10 µM was found to be 56% and the IC50 was roughly 7.59 µM.

For `O=C(N1CCCC1)N1CC[C@@H](CN2C(=O)C3(CCOCC3)N=C2c2ccc(-c3ccc4occc4c3)cc2)C1` [compound 671, 2-[4-(1-Benzofuran-5-yl)phenyl]-3-{[(3S)-1-(pyrrolidin-1-ylcarbonyl)pyrrolidin-3-yl]methyl}-8-oxa-1,3-diazaspiro[4.5]dec-1-en-4-one], the inhibition at 10 µM was found to be 76% and the IC50 is 1.66 µM.

Take `CC(O)C(=O)N1CC[C@@H](CN2C(=O)C3(CCOCC3)N=C2c2ccc(-c3ccc4c(cnn4C)c3)cc2)C1` (stereo partly drawn) [compound 673, 3-{[(3R)-1-(2-Hycdroxypropanoyl)pyrrolidin-3-yl]methyl}-2-[4-(1-methyl-1H-indazol-5-yl)phenyl]-8-oxa-1,3-diazaspiro[4.5]dec-1-en-4-one]: the inhibition at 10 µM is 61% and the IC50 is 5.5 µM.

As for `Cn1ncc2cc(-c3ccc(C4=NC5(CCOCC5)C(=O)N4C[C@@H]4CCN(C(=O)N5CCCC5)C4)cc3)ccc21` [compound 675], the inhibition at 10 µM came out at 66% and the IC50 was 2.82 µM.

`CC(O)C(=O)N1CC[C@@H](CN2C(=O)C3(CCOC3)N=C2c2ccc(-c3ccc(-c4cnn(C)c4)cc3)cc2)C1` (stereo partly drawn) [compound 677, 3-{[(3R)-1-(2-Hydroxypropanoyl)pyrrolidin-3-yl]methyl}-2-[4′-(1-methyl-1H-pyrazol-4-yl)biphenyl-4-yl]-7-oxa-1,3-diazaspiro[4.4]non-1-en-4-one]: the inhibition at 10 µM amounted to 63% and the IC50 is roughly 7.08 µM.

For the compound `Cn1cc(-c2ccc(-c3ccc(C4=NC5(CCOC5)C(=O)N4C[C@@H]4CCN(C(=O)N5CCCC5)C4)cc3)cc2)cn1` (stereo partly drawn) [compound 679, 2-[4′-(1-Methyl-1H-pyrazol-4-yl)biphenyl-4-yl]-3-{[(3S)-1-(pyrrolidin-1-ylcarbonyl)pyrrolidin-3-yl]methyl}-7-oxa-1,3-diazaspiro[4.4]non-1-en-4-one], the inhibition at 10 µM amounted to 57% and the IC50 was roughly 6.17 µM.

Turning to `O=C(N1CC[C@@H](CN2C(=O)C3(CCOC3)N=C2c2ccc(-c3ccc4cccnc4c3)cc2)C1)C(F)(F)F` (stereo partly drawn) [compound 684, 2-(4-Quinolin-7-ylphenyl)-3-{[(3R)-1-(trifluoroacetyl)pyrrolidin-3-yl]methyl}-7-oxa-1,3-diazaspiro[4.4]non-1-en-4-one], the inhibition at 10 µM was 61% and the IC50 is 4.27 µM.

Consider `CC(O)C(=O)N1CC[C@@H](CN2C(=O)C3(CCOC3)N=C2c2ccc(-c3ccc4occc4c3)cc2)C1` (stereo partly drawn) [compound 687, 2-[4-(1-Benzofuran-5-yl)phenyl]-3-{[(3R)-1-(2-hydroxypropanoyl)pyrrolidin-3-yl]methyl}-7-oxa-1,3-diazaspiro[4.4]non-1-en-4-one], for which the inhibition at 10 µM worked out at 73% and the IC50 is 2.88 µM.

As for `O=C(N1CCCC1)N1CC[C@@H](CN2C(=O)C3(CCOC3)N=C2c2ccc(-c3ccc4occc4c3)cc2)C1` (stereo partly drawn) [compound 689, 2-[4-(1-Benzofuran-5-yl)phenyl]-3-{[(3S)-1-(pyrrolidin-1-ylcarbonyl)pyrrolidin-3-yl]methyl}-7-oxa-1,3-diazaspiro[4.4]non-1-en-4-one], the inhibition at 10 µM was determined as 61% and the IC50 was 4.07 µM.

For `CC(O)C(=O)N1CC[C@@H](CN2C(=O)C3(CCOC3)N=C2c2ccc(-c3ccc4c(cnn4C)c3)cc2)C1` (stereo partly drawn) [compound 691, 3-{[(3R)-1-(2-Hydroxypropanoyl)pyrrolidin-3-yl]methyl}-2-[4-(1-methyl-1H-indazol-5-yl)phenyl]-7-oxa-1,3-diazaspiro[4.4]non-1-en-4-one], the inhibition at 10 µM is 63% and the IC50 is roughly 7.41 µM.

Consider `Cn1ncc2cc(-c3ccc(C4=NC5(CCOC5)C(=O)N4C[C@@H]4CCN(C(=O)N5CCCC5)C4)cc3)ccc21` (stereo partly drawn) [compound 693, 2-[4-(1-Methyl-1H-indazol-5-yl)phenyl]-3-{[(3S)-1-(pyrrolidin-1-ylcarbonyl)pyrrolidin-3-yl]methyl}-7-oxa-1,3-diazaspiro[4.4]non-1-en-4-one], for which the inhibition at 10 µM was determined as 48% and the IC50 is 9.77 µM.
